{
  "source": "patent US8580827B2",
  "about": "(priority 2009, dated 2013)",
  "key": {"[1]": {"system": "live vaccine strain (LVS, type B)", "assay": "microbe, parasite or virus in culture", "type": "cell-based, F. tularensis"}, "F. novicida strain U112": {"system": "F. novicida strain U112", "assay": "microbe, parasite or virus in culture", "type": "cell-based, F. tularensis subspecies novicida"}, "[2]": {"system": "RAW264.7 murine macrophage cells"}, "[3]": {"system": "intracellular F. novicida in TPA-differentiated human THP-1 macrophages", "type": "cell-based"}, "[4]": {"system": "intracellular F. tularensis (type A, Schu S4) in TPA-treated THP-1 cells", "type": "cell-based"}, "[5]": {"system": "Escherichia coli (ATCC 25922)", "type": "cell-based"}, "[6]": {"system": "intracellular F. novicida in RAW264.7 murine macrophages", "type": "cell-based"}, "[7]": {"system": "Salmonella enterica serovar Typhimurium (ATCC 14028)", "type": "cell-based"}, "[8]": {"system": "F. tularensis strain Schu S4 (type A)", "assay": "microbe, parasite or virus in culture", "type": "cell-based"}, "[9]": {"conditions": "Francisella tularensis, U112, 24 h"}},
  "note": "Entries after “also recorded” stand apart in the source; their conditions may differ. Read-outs that look alike come from different tables or passages of the source.",
  "data": [
    {"compound": "NC(=O)c1ccc(-n2nc(C(F)(F)F)cc2-c2ccc(-c3ccc(Cl)cc3)cc2)cc1", "note": "[Compound 2, 4-[5-(4′-Chloro-biphenyl-4-yl)-3-trifluoromethyl-pyrazol-1-yl]-benzamide]", "values": [
      {"measurement": "MIC", "setting": "[1]; Francisella tularensis, 48 h", "value": "≤ 4", "unit": "µg/mL"},
      {"measurement": "MIC", "setting": "F. novicida strain U112; [9]", "value": "≤ 4", "unit": "µg/mL"}
    ]},
    {"compound": "NS(=O)(=O)c1ccc(-n2nc(C(F)(F)F)cc2-c2ccc(-c3ccc(Cl)cc3)cc2)cc1", "note": "[Compound 11, 4-[5-(4′-Chloro-biphenyl-4-yl)-3-trifluoromethyl-pyrazol-1-yl]-benzenesulfonamide]", "values": [
      {"measurement": "MIC", "setting": "[1]; Francisella tularensis, 48 h", "value": "≤ 4", "unit": "µg/mL"},
      {"measurement": "MIC", "setting": "F. novicida strain U112; [9]", "value": "≤ 4", "unit": "µg/mL"}
    ]},
    {"compound": "NS(=O)(=O)c1ccc(-n2nc(C(F)(F)F)cc2-c2ccc(-c3cc(Cl)c(Cl)cc3Cl)cc2)cc1", "note": "[Compound 12, 4-[5-(2′,4′,5′-Trichloro-biphenyl-4-yl)-3-trifluoromethyl-pyrazol-1-yl]-benzenesulfonamide]", "values": [
      {"measurement": "cytotoxicity for macrophages", "setting": "[2]", "value": "showed cytotoxicity for macrophages"},
      {"measurement": "MIC", "setting": "F. novicida strain U112; [9]", "value": "≤ 4", "unit": "µg/mL"}
    ]},
    {"compound": "Nc1ccc(-n2nc(C(F)(F)F)cc2-c2ccc(-c3ccccc3)cc2)cc1", "note": "[Compound 16, 4-(5-Biphenyl-4-yl-3-trifluoromethyl-pyrazol-1-yl)-phenylamine]", "values": [
      {"measurement": "MIC", "setting": "[1]; Francisella tularensis, 48 h", "value": "≤ 4", "unit": "µg/mL"},
      {"measurement": "MIC", "setting": "F. novicida strain U112; [9]", "value": "≤ 4", "unit": "µg/mL"}
    ]},
    {"compound": "Nc1ccc(-n2nc(C(F)(F)F)cc2-c2ccc(-c3cc(Cl)c(Cl)cc3Cl)cc2)cc1", "note": "[Compound 17, 4-[5-(2′,4′,5′-Trichloro-biphenyl-4-yl)-3-trifluoromethyl-pyrazol-1-yl]-phenylamine]", "values": [
      {"measurement": "MIC", "setting": "[1]", "value": "potent inhibitor"},
      {"measurement": "MIC", "setting": "F. novicida strain U112", "value": "no measurable inhibitory effect"}
    ]},
    {"compound": "Nc1ccc(-n2nc(C(F)(F)F)cc2-c2ccc(-c3ccc(Br)cc3)cc2)cc1", "note": "[Compound 20, 4-[5-(4′-Bromo-biphenyl-4-yl)-3-trifluoromethyl-pyrazol-1-yl]-phenylamine]", "values": [
      {"measurement": "MIC", "setting": "[1]; Francisella tularensis, 48 h", "value": "≤ 4", "unit": "µg/mL"},
      {"measurement": "inhibition of intracellular F. novicida survival", "setting": "[3]", "value": "effectively inhibits; also recorded: could inhibit the survival of intracellular Francisella"},
      {"measurement": "inhibition of intracellular Schu S4 survival", "setting": "[4]", "value": "significant inhibitory effect"},
      {"measurement": "activity against E. coli", "setting": "[5]", "value": "inactive"},
      {"measurement": "MIC", "setting": "F. novicida strain U112; [9]", "value": "≤ 4", "unit": "µg/mL"},
      {"measurement": "inhibition of intracellular F. novicida survival", "setting": "[6]", "value": "effectively inhibits; also recorded: could inhibit the survival of intracellular Francisella"},
      {"measurement": "activity against S. enterica serovar Typhimurium", "setting": "[7]", "value": "inactive"}
    ]},
    {"compound": "Cc1ccc(-c2cc(C(F)(F)F)nn2-c2ccc(S(N)(=O)=O)cc2)cc1", "note": "[celecoxib, 4-[5-(4-methylphenyl)-3-(trifluoromethyl)pyrazol-1-yl]benzenesulfonamide, reference compound]", "values": [
      {"measurement": "decrease in CFU", "setting": "[1]", "value": "≧log decrease in CFU"},
      {"measurement": "MIC", "setting": "[1]; Francisella tularensis, 48 h", "value": 16, "unit": "µg/mL"},
      {"measurement": "activity against E. coli", "setting": "[5]", "value": "inactive"},
      {"measurement": "decrease in CFU", "setting": "F. novicida strain U112", "value": "≧log decrease in CFU"},
      {"measurement": "activity against S. enterica serovar Typhimurium", "setting": "[7]", "value": "inactive"},
      {"measurement": "MIC", "setting": "[8]; Francisella tularensis, 24 h", "value": 16, "unit": "µg/mL"}
    ]},
    {"compound": "CS(=O)(=O)c1ccc(C2=C(c3ccccc3)C(=O)OC2)cc1", "note": "[rofecoxib]", "values": [
      {"measurement": "effect on bacteria", "setting": "[1]", "value": "no appreciable effect"},
      {"measurement": "effect on bacteria", "setting": "[5]", "value": "no appreciable effect"},
      {"measurement": "effect on bacteria", "setting": "F. novicida strain U112", "value": "no appreciable effect"},
      {"measurement": "effect on bacteria", "setting": "[7]", "value": "no appreciable effect"},
      {"measurement": "effect on bacteria", "setting": "[8]", "value": "no appreciable effect"}
    ]}
  ]
}
